Results as given in ChEMBL document CHEMBL1201862, “PubChem BioAssay data set” (2004).
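How tested: cells in 96-well plates exposed to compound for 48 hours at five concentrations. Abbreviation: GI50, concentration required for 50% inhibition of growth.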 The source made the active and inactive calls. Rule as the data show it: active = GI50 up to about 1.1 µM and inactive = higher.

Tests used:
Test in all cases: NCI-60 cell line screen, 48 h
KM12 = tested on: KM12
ACHN = tested on: ACHN
SK-OV-3 = tested on: SK-OV-3
SF-268 = tested on: SF-268
OVCAR-8 = tested on: OVCAR-8
M14 = tested on: M14
TK-10 = tested on: TK-10
CCRF-CEM = tested on: CCRF-CEM
SN12C = tested on: SN12C
HCT-15 = tested on: HCT-15
NCI-H460 = tested on: NCI-H460
CAKI-1 = tested on: CAKI-1
UACC-62 = tested on: UACC-62
SNB-75 = tested on: SNB-75
SNB-19 = tested on: SNB-19
LOX IMVI = tested on: LOX IMVI
HT-29 = tested on: HT-29
HOP-92 = tested on: HOP-92

SMILES	GI50 (KM12)	GI50 (ACHN)	GI50 (SK-OV-3)	GI50 (SF-268)	GI50 (OVCAR-8)	GI50 (M14)	GI50 (TK-10)	GI50 (CCRF-CEM)	GI50 (SN12C)	GI50 (HCT-15) [µM]	GI50 (NCI-H460)	GI50 (CAKI-1)	GI50 (UACC-62)	GI50 (SNB-75)	GI50 (SNB-19)	GI50 (LOX IMVI)	GI50 (HT-29)	GI50 (HOP-92)
Cc1cc2c(cc1C)[n+]([O-])c(C(=O)C/C(=N/OCCCc1ccccc1)C(=O)Nc1cc(Cl)ccc1Cl)c(C)[n+]2[O-]	> 100 µM (inactive)	> 100 µM (inactive)	> 100 µM (inactive)	> 100 µM (inactive)	> 100 µM (inactive)	> 100 µM (inactive)	> 100 µM (inactive)	33.3 µM (inactive)	> 100 µM (inactive)	> 100	> 100 µM (inactive)	> 100 µM (inactive)	> 100 µM (inactive)	> 100 µM (inactive)	> 100 µM (inactive)	> 100 µM (inactive)	> 100 µM (inactive)	–
C/C(CC(=O)Nc1ccc(C)cc1)=N\NC(N)=S	77.4 µM (inactive)	79.4 µM (inactive)	> 100 µM (inactive)	> 100 µM (inactive)	> 100 µM (inactive)	66.7 µM (inactive)	> 100 µM (inactive)	> 100 µM (inactive)	–	–	> 100 µM (inactive)	–	> 100 µM (inactive)	> 100 µM (inactive)	–	54.8 µM (inactive)	> 100 µM (inactive)	> 100 µM (inactive)
CCOC(=O)/C(C#N)=C(O)/C(=C/c1ccccc1Cl)NC(=O)c1ccccc1	> 100 µM (inactive)	> 100 µM (inactive)	> 100 µM (inactive)	> 100 µM (inactive)	> 100 µM (inactive)	> 100 µM (inactive)	> 100 µM (inactive)	> 100 µM (inactive)	> 100 µM (inactive)	27.7	> 100 µM (inactive)	> 100 µM (inactive)	> 100 µM (inactive)	> 100 µM (inactive)	> 100 µM (inactive)	–	> 100 µM (inactive)	> 100 µM (inactive)
Cn1cccc1/C=C/c1cc(Br)c(/C=C/c2cccn2C)cc1Br	7.23 µM (inactive)	10.2 µM (inactive)	14.8 µM (inactive)	20.5 µM (inactive)	> 10 µM (inactive)	19 µM (inactive)	22.5 µM (inactive)	15.2 µM (inactive)	21 µM (inactive)	8.75	17.9 µM (inactive)	15.3 µM (inactive)	13.8 µM (inactive)	3.13 µM (inactive)	24.2 µM (inactive)	18.3 µM (inactive)	18.6 µM (inactive)	11.7 µM (inactive)
Cc1ccc(SSCCCCS(=O)O)cc1	18.2 µM (inactive)	19 µM (inactive)	34.2 µM (inactive)	10 µM (inactive)	> 10 µM (inactive)	16.4 µM (inactive)	19.9 µM (inactive)	5.74 µM (inactive)	11.4 µM (inactive)	17.5	32.5 µM (inactive)	18.9 µM (inactive)	15.3 µM (inactive)	14.1 µM (inactive)	34.7 µM (inactive)	9.79 µM (inactive)	21.7 µM (inactive)	–
CC(=O)OCCOCn1c2ccccc2c2c3c(c4c5ccccc5n(COCCOC(C)=O)c4c21)C(=O)N(Cc1ccccc1)C3=O	–	> 100 µM (inactive)	> 100 µM (inactive)	> 100 µM (inactive)	> 100 µM (inactive)	> 100 µM (inactive)	> 100 µM (inactive)	> 100 µM (inactive)	> 100 µM (inactive)	> 100	> 100 µM (inactive)	–	> 100 µM (inactive)	76.7 µM (inactive)	> 100 µM (inactive)	> 100 µM (inactive)	> 100 µM (inactive)	55.5 µM (inactive)
